In publication PMC3081663 (Journal of Natural Products, 2011):

Experiments:
[1] = tested on: phosphorylation of histone H2AX in HCT-15 cells; experiment: In-cell Western assay for phosphorylation of histone H2AX; format: cell-based; conditions: 4 h of drug treatment
[2] = tested on: cell lines in which MDR1 was overexpressed; conditions: MDR1 overexpressed by drug selection or transfection; cited from earlier work
panel of cell lines = experiment: Cytotoxicity in a panel of cell lines; format: cell-based
[3] = tested on: human colon carcinoma cell line LS174T; conditions: LS174T subcutaneously implanted in nude mice; cited from earlier work
supercoiled plasmid DNA = experiment: In vitro DNA damage assay; format: biochemical
MDR1/MRP in HCT-15 cells = format: cell-based
MCF-7 = conditions: MCF7 cells, 72 h treatment
[4] = tested on: phosphorylation of histone H2AX in MCF7 cells; experiment: In-cell Western assay for phosphorylation of histone H2AX; format: cell-based; conditions: 4 h

Compound: CC(C)(O)CCc1ccc(O)c2c(=O)c3c(O)c4c(cc3oc12)O[C@H]1OC=C[C@@]41O [austocystin D]
- induction of phosphorylation of histone H2AX [1]: induced the phosphorylation of histone H2AX
- fold more potent in cell lines in which MDR1 was overexpressed [2]: 20 fold
- GI50 (panel of cell lines; 72 h, read-out: GI50 values for three cell lines): < 10 nM
- selectivity between sensitive and resistant cell lines (panel of cell lines; 72 h cytotoxicity panel): over 1000 fold
- tumor growth in vivo [3]: inhibited the growth
- requirement for increased nicked DNA (supercoiled plasmid DNA; 1 μM austocystin D with different additives): only in the presence of both liver microsomes and the NADPH regenerating system
- concentration causing direct DNA damage (nicking of supercoiled plasmid DNA) (supercoiled plasmid DNA; human liver microsomes and NADPH regenerating system, 4 h, 37 °C): 100 nM
- inhibition of calcein-AM efflux (retention of calcein) (MDR1/MRP in HCT-15 cells): inhibited efflux of calcein-AM

Compound: CC[C@@]1(O)C(=O)OCc2c1cc1n(c2=O)Cc2cc3ccccc3nc2-1 [camptothecin]
- induction of phosphorylation of histone H2AX [1]: induced dose-dependent phosphorylation of histone H2AX

Compound: CC(C)(O)CCc1ccc(O)c2c(=O)c3c(O)c4c(cc3oc12)O[C@H]1OCC[C@@]41O [dihydro-austocystin D]
- cytotoxicity (growth inhibition) (MCF-7): very weak
- induction of the DNA damage response (phosphorylation of histone H2AX) [4]: very weak

Compound: COc1cccc2c1C(=O)c1c(O)c3c(c(O)c1C2=O)C[C@@](O)(C(=O)CO)C[C@@H]3O[C@H]1C[C@H](N)[C@H](O)[C@H](C)O1 [doxorubicin]
- induction of phosphorylation of histone H2AX [1]: induced dose-dependent phosphorylation of histone H2AX

Compound: CC(=O)N1CCN(c2ccc(OCC3COC(Cn4ccnc4)(c4ccc(Cl)cc4Cl)O3)cc2)CC1 (centres unmarked) [ketoconazole]
- effect on austocystin D cytotoxicity (HCT-15): fully prevented

Compound: bleomycin
- induction of phosphorylation of histone H2AX [1]: induced dose-dependent phosphorylation of histone H2AX
